In brackets after ≈: the same amount, converted by molar mass. Each block holds one compound with its values, some of them ahead of it.
Legend:
Staphylococcus aureus [1] = experiment: Antibacterial activity against Staphylococcus aureus ATCC 25923 assessed as bacterial growth inhibition measured after 18 hrs by CLSI protocol based two-fold serial microdilution method; format: functional, organism-based; details: ATCC 25923, 18 h
Acinetobacter baumannii = experiment: Antibacterial activity against Acinetobacter baumannii ATCC 19606 assessed as growth inhibition incubated for 18 hrs by resazurin dye based assay; format: functional, organism-based; details: ATCC 19606, 18 h
Staphylococcus aureus [2] = experiment: Antibacterial activity against […] Staphylococcus aureus ATCC 29213 assessed as reduction in bacterial growth incubated for 18 hrs by mueller hinton broth dilution method; format: functional, organism-based; details: ATCC 29213, 18 h
Staphylococcus aureus [3] = experiment: Antibiofilm activity against Methicillin-sensitive Staphylococcus aureus ATCC 29213 assessed as reduction in biofilm formation at 200 uM incubated for 24 hrs by crystal violet staining based analysis relative to control; format: functional; design: scale not given: the % may be the effect or the level left
Pseudomonas aeruginosa [4] = experiment: Antibiofilm activity against Pseudomonas aeruginosa PAO1 assessed as inhibition of biofilm formation at 10 microg/ml relative to control; format: functional; design: scale not given: the % may be the effect or the level left; details: dose 10 µg/ml
Pseudomonas aeruginosa [5] = experiment: Antimicrobial activity against Pseudomonas aeruginosa PAO1 assessed as inhibition of microbial growth by microdilution broth method; format: functional
Pseudomonas aeruginosa [6] = experiment: Antimicrobial activity against Pseudomonas aeruginosa ATCC 9027 assessed as reduction in microbial growth by serial dilution method; format: functional, organism-based
Staphylococcus aureus [7] = experiment: Antibacterial activity against Staphylococcus aureus MLS16 MTCC 2940 assessed as bacterial growth inhibition measured after 24 hrs by microdilution assay; format: functional
Micrococcus luteus = experiment: Antibacterial activity against Micrococcus luteus MTCC 2470 assessed as inhibition of bacterial growth incubated for 24 hrs by agar well diffusion method; format: functional
Staphylococcus aureus [8] = experiment: Antibacterial activity against Staphylococcus aureus MTCC 96 assessed as reduction in microbial growth after 24 hrs by CLSI based microdilution method; format: functional
Pseudomonas aeruginosa [9] = experiment: Antibiofilm activity against Pseudomonas aeruginosa ATCC 27853 assessed as reduction in biofilm formation at 1/6 times of MIC after 24 hrs by crystal violet staining based assay; format: functional; design: scale not given: the % may be the effect or the level left
Staphylococcus aureus [10] = experiment: Antibiofilm activity against Staphylococcus aureus ATCC 6538 assessed as inhibition of biofilm formation incubated for 24 hrs by crystal violet staining based analysis; format: functional, organism-based; details: ATCC 6538, 24 h
[11] = test system: Staphylococcus epidermidis; experiment: Antibacterial activity against Staphylococcus epidermidis clinical isolate 533/12 assessed as reduction in bacterial growth measured after 24 hrs by CLSI based broth micro-dilution method; format: functional
[12] = test system: Staphylococcus epidermidis; experiment: Antimicrobial activity against Staphylococcus epidermidis ATCC 12228 assessed as reduction in microbial growth after 24 hrs by CLSI based broth microdilution method; format: functional
[13] = test system: Staphylococcus epidermidis; experiment: Antibiofilm activity against Staphylococcus epidermidis clinical isolate 523/12 assessed as inhibition of biofilm formation measured after 24 hrs by confocal laser scanning microscopy analysis; format: functional, organism-based
[14] = test system: Staphylococcus epidermidis; experiment: Antibacterial activity against Staphylococcus epidermidis clinical isolate 532/12 assessed as reduction in bacterial growth measured after 24 hrs by CLSI based broth micro-dilution method; format: functional
[15] = test system: Staphylococcus epidermidis; experiment: Antibacterial activity against Staphylococcus epidermidis clinical isolate 528/12 assessed as reduction in bacterial growth measured after 24 hrs by CLSI based broth micro-dilution method; format: functional
[16] = test system: Staphylococcus epidermidis; experiment: Antibiofilm activity against Staphylococcus epidermidis clinical isolate 517/12 assessed as inhibition of biofilm formation measured after 24 hrs by confocal laser scanning microscopy analysis; format: functional, organism-based
[17] = test system: Staphylococcus epidermidis; experiment: Antibiofilm activity against Staphylococcus epidermidis ATCC 12228 assessed as inhibition of biofilm formation measured after 24 hrs by confocal laser scanning microscopy analysis; format: functional, organism-based; details: ATCC 12228, 24 h
[18] = test system: Staphylococcus epidermidis; experiment: Antibacterial activity against Staphylococcus epidermidis clinical isolate 517/12 assessed as reduction in bacterial growth measured after 24 hrs by CLSI based broth micro-dilution method; format: functional
[19] = test system: Staphylococcus epidermidis; experiment: Antibacterial activity against Staphylococcus epidermidis clinical isolate 531/12 assessed as reduction in bacterial growth measured after 24 hrs by CLSI based broth micro-dilution method; format: functional
[20] = test system: Staphylococcus epidermidis; experiment: Antimicrobial activity against Staphylococcus epidermidis ATCC 35984 assessed as reduction in microbial growth after 24 hrs by CLSI based broth microdilution method; format: functional
[21] = test system: Staphylococcus epidermidis; experiment: Antibiofilm activity against Staphylococcus epidermidis clinical isolate 519/12 assessed as inhibition of biofilm formation measured after 24 hrs by confocal laser scanning microscopy analysis; format: functional, organism-based
[22] = test system: Staphylococcus epidermidis; experiment: Antibiofilm activity against Staphylococcus epidermidis clinical isolate 532/12 assessed as inhibition of biofilm formation measured after 24 hrs by confocal laser scanning microscopy analysis; format: functional, organism-based
[23] = test system: Staphylococcus epidermidis; experiment: Antibiofilm activity against Staphylococcus epidermidis clinical isolate 526/12 assessed as inhibition of biofilm formation measured after 24 hrs by confocal laser scanning microscopy analysis; format: functional, organism-based
[24] = test system: Staphylococcus epidermidis; experiment: Antibiofilm activity against Staphylococcus epidermidis clinical isolate 533/12 assessed as inhibition of biofilm formation measured after 24 hrs by confocal laser scanning microscopy analysis; format: functional, organism-based
[25] = test system: Staphylococcus epidermidis; experiment: Antibiofilm activity against Staphylococcus epidermidis clinical isolate 528/12 assessed as inhibition of biofilm formation measured after 24 hrs by confocal laser scanning microscopy analysis; format: functional, organism-based
[26] = test system: Staphylococcus epidermidis; experiment: Antibiofilm activity against Staphylococcus epidermidis clinical isolate 531/12 assessed as inhibition of biofilm formation measured after 24 hrs by confocal laser scanning microscopy analysis; format: functional, organism-based
Staphylococcus aureus [27] = experiment: Antibacterial activity against methicillin-sensitive Staphylococcus aureus ATCC 29213 assessed as reduction in bacterial growth incubated for 18 hrs by mueller hinton broth dilution method; format: functional, organism-based; details: ATCC 29213, 18 h
Streptococcus mutans = experiment: Antibiofilm activity against Streptococcus mutans ATCC 25175 assessed as inhibition of biofilm formation incubated for 24 hrs by crystal violet staining based analysis; format: functional, organism-based; details: ATCC 25175, 24 h
Pseudomonas aeruginosa [28] = experiment: Antibiofilm activity against Pseudomonas aeruginosa PAO1 assessed as inhibition of biofilm formation incubated for 8 hrs by crystal violet based; format: functional, organism-based; details: PAO1, 8 h
Klebsiella pneumoniae [29] = experiment: Antibacterial activity against Klebsiella pneumoniae ATCC 13882 assessed as fold change in colistin MIC incubated for 16 to 18 hrs by broth microdilution method; format: functional; details: time 16-18 hrs
Klebsiella pneumoniae [30] = experiment: Antibiofilm activity against Klebsiella pneumoniae ATCC 13882 assessed as inhibition of biofilm formation incubated for 24 hrs by crystal violet staining based broth microdilution method; format: functional, organism-based; details: ATCC 13882, 24 h
Pseudomonas aeruginosa [31] = experiment: Antibiofilm activity against Pseudomonas aeruginosa PAO1 assessed as inhibition of biofilm formation at 100 microg/ml relative to control; format: functional; design: scale not given: the % may be the effect or the level left; details: dose 100 µg/ml

SMILES: C/C(=C\c1ccccc1)Cn1cc(CCCCCc2c[nH]c(N)n2)nn1
IC50 (Staphylococcus aureus [1]): 0.81 µM
IC50 (Acinetobacter baumannii): 0.98 µM

SMILES: Nc1ncc(C#CC2CCCC2)cn1
IC50 (Staphylococcus aureus [2]): 72 µM
Activity (Staphylococcus aureus [3]): 85%

SMILES: O=C1C=C(c2ccc(F)cc2)/C(=C/Sc2ccccn2)N1
IC50 (Pseudomonas aeruginosa [6]): 32 µM

SMILES: COc1ccc(CC(=O)OC2OC(=O)C(Br)=C2Br)cc1OC (stereo not given)
Activity (Pseudomonas aeruginosa [9]): 63%

SMILES: CCCCCCCCCC(=O)NCCCc1cnc(N)nc1
IC50 (Staphylococcus aureus [27]): 67 µM
Activity (Staphylococcus aureus [3]): 80%

SMILES: COc1ccccc1/C=C/C(=O)c1ccccc1O
Activity (Pseudomonas aeruginosa [31]): 57%

Continued, in another order:

MIC (Pseudomonas aeruginosa [5]): > 512 µM
SMILES: O=C(/C=C/c1ccc(O)c(O)c1)OCCc1ccc(Br)cc1
Activity (Pseudomonas aeruginosa [4]): 33.69%

MIC (Staphylococcus aureus [7]): 9.37 µM (≈ 3.57 µg/mL)
MIC (Micrococcus luteus): 18.8 µM (≈ 7.15 µg/mL)
MIC (Staphylococcus aureus [8]): 9.37 µM
SMILES: CCCCCCCCc1ccc(C(F)(F)F)nc1OCc1cn(C#N)nn1

IC50 (Staphylococcus aureus [10]): 4.2 µM
SMILES: CCOC(=O)c1nn(-c2ccc(Cl)cc2)cc1C(=O)c1cc2cc(CN3CCN(Cc4ccc5oc(C(=O)c6cn(-c7ccc(Cl)cc7)nc6C(=O)OCC)cc5c4)CC3)ccc2o1

MIC [11]: 4 µg/mL (≈ 13.9 µM)
MIC [12]: 4 µg/mL
IC50 [13]: 3.14 µg/mL (≈ 10.9 µM)
MIC [14]: 4 µg/mL (≈ 13.9 µM)
MIC [15]: 8 µg/mL (≈ 27.8 µM)
IC50 [16]: 0.66 µg/mL (≈ 2.29 µM)
IC50 [17]: 0.35 µg/mL (≈ 1.22 µM)
MIC [18]: 8 µg/mL (≈ 27.8 µM)
MIC [19]: 4 µg/mL (≈ 13.9 µM)
MIC [20]: 4 µg/mL
IC50 [21]: 2.5 µg/mL (≈ 8.69 µM)
IC50 [22]: 2.21 µg/mL (≈ 7.68 µM)
IC50 [23]: 4.95 µg/mL (≈ 17.2 µM)
IC50 [24]: 2.88 µg/mL (≈ 10 µM)
IC50 [25]: 1.11 µg/mL (≈ 3.86 µM)
IC50 [26]: 1.13 µg/mL (≈ 3.93 µM)
SMILES: Fc1ccc(NC(=S)Nc2nccs2)cc1Cl

IC50 (Streptococcus mutans): 5.8 µM
SMILES: CCOC(=O)c1nn(-c2ccc([N+](=O)[O-])cc2)cc1C(=O)c1cc2cc(CN3CCN(Cc4ccc5oc(C(=O)c6cn(-c7ccc([N+](=O)[O-])cc7)nc6C(=O)OCC)cc5c4)CC3)ccc2o1

IC50 (Pseudomonas aeruginosa [28]): 100 µM
SMILES: Cc1ccc(NC(=O)Cn2c(N)nc(Cc3ccc(C(C)(C)C)cc3)c2-c2ccccc2Br)cc1

IC50 (Klebsiella pneumoniae [30]): 17.4 µM
SMILES: Nc1nccc(-c2cccc(NC(=O)c3cc(Br)cc(Br)c3)c2)n1
fold change (FC) (Klebsiella pneumoniae [29]): 32
